Assay: xn = mol fraction of the nth substance listed
Settings: Liquid, Vibrating tube method

CCCCCCCCCC [decane] + CCCCCCCC
Settings	mass density [kg/m3]
363.03 K, 7000 kPa, x2 = 0.0616	682.5
363.03 K, 8000 kPa, x2 = 0.0616	683.6
363.03 K, 9000 kPa, x2 = 0.0616	684.68
363.03 K, 10000 kPa, x2 = 0.0616	685.7
363.03 K, 10990 kPa, x2 = 0.0616	686.75
363.03 K, 12000 kPa, x2 = 0.0616	687.8
363.03 K, 13000 kPa, x2 = 0.0616	688.75
363.03 K, 14000 kPa, x2 = 0.0616	689.77
363.03 K, 15000 kPa, x2 = 0.0616	690.77
363.03 K, 16000 kPa, x2 = 0.0616	691.73
363.03 K, 17000 kPa, x2 = 0.0616	692.68
363.03 K, 18000 kPa, x2 = 0.0616	693.63
363.03 K, 19000 kPa, x2 = 0.0616	694.55
363.03 K, 20000 kPa, x2 = 0.0616	695.46
363.03 K, 21000 kPa, x2 = 0.0616	696.37
363.03 K, 22000 kPa, x2 = 0.0616	697.23
363.03 K, 23000 kPa, x2 = 0.0616	698.12
363.03 K, 24000 kPa, x2 = 0.0616	699
363.03 K, 25000 kPa, x2 = 0.0616	699.81
363.05 K, 1000 kPa, x2 = 0.2801	670.18
363.05 K, 2000 kPa, x2 = 0.2801	671.39
363.05 K, 3000 kPa, x2 = 0.2801	672.48
363.05 K, 4000 kPa, x2 = 0.2801	673.67
363.05 K, 5000 kPa, x2 = 0.2801	674.81
363.05 K, 6000 kPa, x2 = 0.2801	675.97
363.05 K, 7000 kPa, x2 = 0.2801	677.07
363.05 K, 8000 kPa, x2 = 0.2801	678.19
363.05 K, 9000 kPa, x2 = 0.2801	679.28
363.05 K, 10000 kPa, x2 = 0.2801	680.35
363.05 K, 10990 kPa, x2 = 0.2801	681.42
363.05 K, 12000 kPa, x2 = 0.2801	682.49
363.05 K, 13000 kPa, x2 = 0.2801	683.53
363.05 K, 14000 kPa, x2 = 0.2801	684.56
363.05 K, 15000 kPa, x2 = 0.2801	685.57
363.05 K, 16000 kPa, x2 = 0.2801	686.57
363.05 K, 17000 kPa, x2 = 0.2801	687.56
363.05 K, 18000 kPa, x2 = 0.2801	688.51
363.05 K, 19000 kPa, x2 = 0.2801	689.47
363.05 K, 20000 kPa, x2 = 0.2801	690.38
363.05 K, 21000 kPa, x2 = 0.2801	691.33
363.05 K, 22000 kPa, x2 = 0.2801	692.19
363.05 K, 23000 kPa, x2 = 0.2801	693.06
363.05 K, 24000 kPa, x2 = 0.2801	693.94
363.05 K, 25000 kPa, x2 = 0.2801	694.78
363.07 K, 1000 kPa, x2 = 0.7736	654.79
363.07 K, 1000 kPa, x2 = 0.9623	647.67
363.07 K, 2000 kPa, x2 = 0.7736	656.13
363.07 K, 2000 kPa, x2 = 0.9623	649.03
363.07 K, 3000 kPa, x2 = 0.7736	657.39
363.07 K, 3000 kPa, x2 = 0.9623	650.38
363.07 K, 4000 kPa, x2 = 0.7736	658.68
363.07 K, 4000 kPa, x2 = 0.9623	651.7
363.07 K, 5000 kPa, x2 = 0.7736	659.92
363.07 K, 5000 kPa, x2 = 0.9623	652.98
363.07 K, 6000 kPa, x2 = 0.7736	661.18
363.07 K, 6000 kPa, x2 = 0.9623	654.25
363.07 K, 7000 kPa, x2 = 0.7736	662.38
363.07 K, 7000 kPa, x2 = 0.9623	655.52
363.07 K, 8000 kPa, x2 = 0.7736	663.57
363.07 K, 8000 kPa, x2 = 0.9623	656.76
363.07 K, 9000 kPa, x2 = 0.7736	664.75
363.07 K, 9000 kPa, x2 = 0.9623	658
363.07 K, 10000 kPa, x2 = 0.7736	665.92
363.07 K, 10000 kPa, x2 = 0.9623	659.23
363.07 K, 10990 kPa, x2 = 0.7736	667.06
363.07 K, 10990 kPa, x2 = 0.9623	660.42
363.07 K, 12000 kPa, x2 = 0.7736	668.19
363.07 K, 12000 kPa, x2 = 0.9623	661.58
363.07 K, 13000 kPa, x2 = 0.7736	669.32
363.07 K, 13000 kPa, x2 = 0.9623	662.75
363.07 K, 14000 kPa, x2 = 0.7736	670.41
363.07 K, 14000 kPa, x2 = 0.9623	663.87
363.07 K, 15000 kPa, x2 = 0.7736	671.49
363.07 K, 15000 kPa, x2 = 0.9623	664.99
363.07 K, 16000 kPa, x2 = 0.7736	672.56
363.07 K, 16000 kPa, x2 = 0.9623	666.07
363.07 K, 17000 kPa, x2 = 0.7736	673.6
363.07 K, 17000 kPa, x2 = 0.9623	667.17
363.07 K, 18000 kPa, x2 = 0.7736	674.63
363.07 K, 18000 kPa, x2 = 0.9623	668.2
363.07 K, 19000 kPa, x2 = 0.7736	675.61
363.07 K, 19000 kPa, x2 = 0.9623	669.26
363.07 K, 20000 kPa, x2 = 0.7736	676.63
363.07 K, 20000 kPa, x2 = 0.9623	670.29
363.07 K, 21000 kPa, x2 = 0.7736	677.57
363.07 K, 21000 kPa, x2 = 0.9623	671.3
363.07 K, 22000 kPa, x2 = 0.7736	678.47
363.07 K, 22000 kPa, x2 = 0.9623	672.27
363.07 K, 23000 kPa, x2 = 0.7736	679.43
363.07 K, 23000 kPa, x2 = 0.9623	673.14
363.07 K, 24000 kPa, x2 = 0.7736	680.34
363.07 K, 24000 kPa, x2 = 0.9623	674.08
363.07 K, 25000 kPa, x2 = 0.7736	681.28
363.07 K, 25000 kPa, x2 = 0.9623	674.98

— the NIST ThermoML archive (doi:10.1016/j.jct.2011.08.016)
